Experimental data reported in US9024017B2, “Octahydro-cyclopentapyrrolyl antagonists of CCR2” (Janssen Pharmaceutica NV, priority 2012, dated 2015).

Molecular target: T1, CCR2 (Homo sapiens, UniProt P41597)
T1 construct: host or cells: THP-1 (human monocytic cell line)
Experiment: MCP-1 Receptor Binding Assay in THP-1 Cells
Conditions: read-out: MCP1B_v3 IC50
In short: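 Human monocytic THP-1 cells incubated 2 h at 30 °C with 0.5 nM 125I-MCP-1 and varying concentrations of test compound or unlabelled MCP-1. Cells filter-harvested and counted by scintillation; blank subtracted, compared with vehicle; nonspecific binding with 1 μM cold MCP-1.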

T1 sequence (P41597 whole entry): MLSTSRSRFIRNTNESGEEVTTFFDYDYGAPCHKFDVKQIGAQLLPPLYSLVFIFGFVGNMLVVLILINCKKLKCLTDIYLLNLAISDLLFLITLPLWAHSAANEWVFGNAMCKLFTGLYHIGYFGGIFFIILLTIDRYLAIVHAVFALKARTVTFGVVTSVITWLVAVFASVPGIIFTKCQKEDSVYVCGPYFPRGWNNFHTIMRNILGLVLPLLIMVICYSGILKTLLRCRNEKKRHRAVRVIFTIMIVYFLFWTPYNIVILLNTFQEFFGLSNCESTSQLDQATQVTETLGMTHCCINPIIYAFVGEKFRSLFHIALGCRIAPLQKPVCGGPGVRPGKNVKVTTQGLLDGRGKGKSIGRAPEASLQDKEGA

IC50	Compound
30 nM	COC1COCCC1N[C@@H]1C[C@H]2CN(C(=O)c3cocn3)C[C@@]2(C(=O)N2CCc3ncc(C(F)(F)F)cc3C2)C1 (relative stereo) [Example 72, ((3aR,5R,6aR)-5-(((3S*,4S*)-3-Methoxytetrahydro-2H-pyran-4-yl)amino)-2-(oxazole-4-carbonyl)octahydrocyclopenta[c]pyrrol-3a-yl)(3-(trifluoromethyl)-7,8-dihydro-1,6-naphthyridin-6(5H)-yl)methanone]
360 nM	C#CC(=O)N1C[C@@H]2C[C@@H](NC3CCOCC3OC)C[C@]2(C(=O)N2CCc3ncc(C(F)(F)F)cc3C2)C1 (relative stereo) [Example 73, 1-((3aR,5R,6aR)-5-(((3S*,4S*)-3-Methoxytetrahydro-2H-pyran-4-yl)amino)-3a-(3-(trifluoromethyl)-5,6,7,8-tetrahydro-1,6-naphthyridine-6-carbonyl)hexahydrocyclopenta-[c]pyrrol-2(1H)-yl)prop-2-yn-1-one]
170 nM	COC1COCCC1N[C@@H]1C[C@H]2CN(C(=O)CNC(C)=O)C[C@@]2(C(=O)N2CCc3ncc(C(F)(F)F)cc3C2)C1 (relative stereo) [Example 75, N-(2-((3aR,5R,6aR)-5-(((3S*,4S*)-3-Methoxytetrahydro-2H-pyran-4-yl)amino)-3a-(3-(trifluoromethyl)-5,6,7,8-tetrahydro-1,6-naphthyridine-6-carbonyl)hexahydrocyclopenta-[c]pyrrol-2(1H)-yl)-2-oxoethyl)acetamide]
160 nM	COC1COCCC1N[C@@H]1C[C@H]2CN(C(=O)CN(C)C)C[C@@]2(C(=O)N2CCc3ncc(C(F)(F)F)cc3C2)C1 (relative stereo) [Example 76, 2-(Dimethylamino)-1-((3aR,5R,6aR)-5-(((3S*,4S*)-3-methoxytetrahydro-2H-pyran-4-yl)amino)-3a-(3-(trifluoromethyl)-5,6,7,8-tetrahydro-1,6-naphthyridine-6-carbonyl)hexahydrocyclopenta[c]pyrrol-2(1H)-yl)ethanone]
230 nM	COC1COCCC1N[C@@H]1C[C@H]2CN(C(=O)CCN(C)C)C[C@@]2(C(=O)N2CCc3ncc(C(F)(F)F)cc3C2)C1 (relative stereo) [Example 77, 3-(Dimethylamino)-1-((3aR,5R,6aR)-5-(((3S*,4S*)-3-methoxytetrahydro-2H-pyran-4-yl)amino)-3a-(3-(trifluoromethyl)-5,6,7,8-tetrahydro-1,6-naphthyridine-6-carbonyl)hexahydrocyclopenta[c]pyrrol-2(1H)-yl)propan-1-one]
230 nM	COC1COCCC1N[C@@H]1C[C@H]2CN(C(=O)CCCN(C)C)C[C@@]2(C(=O)N2CCc3ncc(C(F)(F)F)cc3C2)C1 (relative stereo) [Example 78, 4-(Dimethylamino)-1-((3aR,5R,6aR)-5-(((3S*,4S*)-3-methoxytetrahydro-2H-pyran-4-yl)amino)-3a-(3-(trifluoromethyl)-5,6,7,8-tetrahydro-1,6-naphthyridine-6-carbonyl)-hexahydrocyclopenta[c]pyrrol-2(1H)-yl)butan-1-one]
500 nM	COC1COCCC1N[C@@H]1C[C@H]2CN(C(=O)CCN3CCCCC3)C[C@@]2(C(=O)N2CCc3ncc(C(F)(F)F)cc3C2)C1 (relative stereo) [Example 79, 1-((3aR,5R,6aR)-5-(((3S*,4S*)-3-Methoxytetrahydro-2H-pyran-4-yl)amino)-3a-(3-(trifluoromethyl)-5,6,7,8-tetrahydro-1,6-naphthyridine-6-carbonyl)hexahydrocyclopenta-[c]pyrrol-2(1H)-yl)-3-(piperidin-1-yl)propan-1-one]
230 nM	COC1COCCC1N[C@@H]1C[C@H]2CN(C(=O)CCN3CCOCC3)C[C@@]2(C(=O)N2CCc3ncc(C(F)(F)F)cc3C2)C1 (relative stereo) [Example 80, 1-((3aR,5R,6aR)-5-(((3S*,4S*)-3-Methoxytetrahydro-2H-pyran-4-yl)amino)-3a-(3-(trifluoromethyl)-5,6,7,8-tetrahydro-1,6-naphthyridine-6-carbonyl)hexahydrocyclopenta-[c]pyrrol-2(1H)-yl)-3-morpholinopropan-1-one]
40 nM	COC1COCCC1N[C@@H]1C[C@H]2CN(C(=O)c3nccs3)C[C@@]2(C(=O)N2CCc3ncc(C(F)(F)F)cc3C2)C1 (relative stereo) [Example 81, ((3aR,5R,6aR)-5-(((3S*,4S*)-3-Methoxytetrahydro-2H-pyran-4-yl)amino)-2-(thiazole-2-carbonyl)octahydrocyclopenta[c]pyrrol-3a-yl)(3-(trifluoromethyl)-7,8-dihydro-1,6-naphthyridin-6(5H)-yl)methanone]
90 nM	COC1COCCC1N[C@@H]1C[C@H]2CN(C(=O)C#CC3CC3)C[C@@]2(C(=O)N2CCc3ncc(C(F)(F)F)cc3C2)C1 (relative stereo) [Example 86, 3-Cyclopropyl-1-((3aR,5R,6aR)-5-(((3S*,4S*)-3-methoxytetrahydro-2H-pyran-4-yl)amino)-3a-(3-(trifluoromethyl)-5,6,7,8-tetrahydro-1,6-naphthyridine-6-carbonyl)hexahydro-cyclopenta[c]pyrrol-2(1H)-yl)prop-2-yn-1-one]
360 nM	COC1COCCC1N[C@@H]1C[C@H]2CN(C(=O)CNC(=O)OC(C)(C)C)C[C@@]2(C(=O)N2CCc3ncc(C(F)(F)F)cc3C2)C1 (relative stereo) [Example 87, tert-Butyl (2-((3aR,5R,6aR)-5-(((3S*,4S*)-3-methoxytetrahydro-2H-pyran-4-yl)amino)-3a-(3-(trifluoromethyl)-5,6,7,8-tetrahydro-1,6-naphthyridine-6-carbonyl)hexahydrocyclopenta[c]pyrrol-2(1H)-yl)-2-oxoethyl)carbamate]
40 nM	COC1COCCC1N[C@@H]1C[C@H]2CN(C(=O)/C=C/CN3CCCC3)C[C@@]2(C(=O)N2CCc3ncc(C(F)(F)F)cc3C2)C1 (relative stereo) [Example 88, (E)-1-((3aR,5R,6aR)-5-(((3S*,4S*)-3-methoxytetrahydro-2H-pyran-4-yl)amino)-3a-(3-(trifluoromethyl)-5,6,7,8-tetrahydro-1,6-naphthyridine-6-carbonyl)hexahydro-cyclopenta[c]pyrrol-2(1H)-yl)-4-(pyrrolidin-1-yl)but-2-en-1-one]
10 nM	CO[C@@H]1COCC[C@@H]1N[C@@H]1C[C@H]2CN(C(=O)/C=C/c3ccc(C(=O)O)cc3)C[C@@]2(C(=O)N2CCc3ccc(C(F)(F)F)cc3C2)C1 (relative stereo) [Example 89, 4-((E)-3-((3aR,5R,6aR)-5-(((3S*,4S*)-3-methoxytetrahydro-2H-pyran-4-yl)amino)-3a-(7-(trifluoromethyl)-1,2,3,4-tetrahydroisoquinoline-2-carbonyl)hexahydrocyclopenta-[c]pyrrol-2(1H)-yl)-3-oxoprop-1-en-1-yl)benzoic acid]
10 nM	CO[C@@H]1COCC[C@@H]1N[C@@H]1C[C@H]2CN(C(=O)/C=C/c3cccc(C(=O)O)c3)C[C@@]2(C(=O)N2CCc3ccc(C(F)(F)F)cc3C2)C1 (relative stereo) [Example 90, 3-((E)-3-((3aR,5R,6aR)-5-(((3S*,4S*)-3-methoxytetrahydro-2H-pyran-4-yl)amino)-3a-(7-(trifluoromethyl)-1,2,3,4-tetrahydroisoquinoline-2-carbonyl)hexahydrocyclopenta-[c]pyrrol-2(1H)-yl)-3-oxoprop-1-en-1-yl)benzoic acid]
610 nM	COC1COCCC1N[C@@H]1C[C@H]2CN(S(C)(=O)=O)C[C@@]2(C(=O)N2CCc3ncc(C(F)(F)F)cc3C2)C1 (relative stereo) [Example 91, ((3aR,5R,6aR)-5-(((3S*,4S*)-3-Methoxytetrahydro-2H-pyran-4-yl)amino)-2-(methylsulfonyl)octahydrocyclopenta[c]pyrrol-3a-yl)(3-(trifluoromethyl)-7,8-dihydro-1,6-naphthyridin-6(5H)-yl)methanone]
1100 nM	COC1COCCC1N[C@@H]1C[C@H]2CN(S(=O)(=O)Cc3ccccc3)C[C@@]2(C(=O)N2CCc3ncc(C(F)(F)F)cc3C2)C1 (relative stereo) [Example 92, ((3aR,5R,6aR)-2-(Benzylsulfonyl)-5-(((3S*,4S*)-3-methoxytetrahydro-2H-pyran-4-yl)amino)octahydrocyclopenta[c]pyrrol-3a-yl)(3-(trifluoromethyl)-7,8-dihydro-1,6-naphthyridin-6(5H)-yl)methanone]
980 nM	COC1COCCC1N[C@@H]1C[C@H]2CN(S(=O)(=O)CCc3ccccc3)C[C@@]2(C(=O)N2CCc3ncc(C(F)(F)F)cc3C2)C1 (relative stereo) [Example 93, ((3aR,5R,6aR)-5-(((3S*,4S*)-3-Methoxytetrahydro-2H-pyran-4-yl)amino)-2-(phenethylsulfonyl)octahydrocyclopenta[c]pyrrol-3a-yl)(3-(trifluoromethyl)-7,8-dihydro-1,6-naphthyridin-6(5H)-yl)methanone]
180 nM	COC1COCCC1N[C@@H]1C[C@H]2CN(C3CC3)C[C@@]2(C(=O)N2CCc3ncc(C(F)(F)F)cc3C2)C1 (relative stereo) [Example 94, ((3aR,5R,6aR)-2-Cyclopropyl-5-(((3S*,4S*)-3-methoxytetrahydro-2H-pyran-4-yl)amino)octahydrocyclopenta[c]pyrrol-3a-yl)(3-(trifluoromethyl)-7,8-dihydro-1,6-naphthyridin-6(5H)-yl)methanone]
30 nM	COC1COCCC1N[C@@H]1C[C@H]2CN(C3CC3)C[C@@]2(C(=O)N2CCc3ccc(C(F)(F)F)cc3C2)C1 (relative stereo) [Example 95, ((3aR,5R,6aR)-2-Cyclopropyl-5-(((3S*,4S*)-3-methoxytetrahydro-2H-pyran-4-yl)amino)octahydrocyclopenta[c]pyrrol-3a-yl)(7-(trifluoromethyl)-3,4-dihydroisoquinolin-2(1H)-yl)methanone]
1220 nM	COC1COCCC1N[C@@H]1C[C@H]2CN(C(C)C)C[C@@]2(C(=O)N2CCc3ncc(C(F)(F)F)cc3C2)C1 (relative stereo) [Example 96, ((3aR,5R,6aR)-2-Isopropyl-5-(((3S*,4S*)-3-methoxytetrahydro-2H-pyran-4-yl)amino)octahydrocyclopenta[c]pyrrol-3a-yl)(3-(trifluoromethyl)-7,8-dihydro-1,6-naphthyridin-6(5H)-yl)methanone]
